Source: US6815461B1, “Method of inhibiting retroviral integrase” (The University of North Carolina at Chapel Hill, priority 1994, dated 2004)
Read-outs that look alike come from different tables or passages of the source.

Tests used:
HIV-1 [1] = test: Magic cell HIV-1 inhibition assay; type: cell-based, HIV-1 strain HXB2; settings: Human immunodeficiency virus 1; Magic cells, infectious units with or without drug, 4 h pretreatment, read two days later
Experimental: Cell lines used were CEM cells, a human T-cell lymphona cell line, A. Kaplan et al, J. Virol. 67, 4050-5 (1993), and Magic cells, J. Kimpton et al, J. Virol. 66, 2232-2239 (1992). The CEM cells were grown in RPM1-1640 medium supplemented with 5% FCS. The Magic Cells, a HELA derivative, were grown in DMEM/H supplemented with 5% FCS, G418 ([…]) and Hygromycin ([…]). The HIV isolate was strain HXB2, originally from Lee Ratner in the laboratory of Robert Gallo at the National Institutes of Health.
The magic cell assay described by Kimpton et al., supra, was used as described. This assay identifies individual cells infected with HIV-1 by the expression of tat, which transactivates an endogenous copy of the HIV-1 LTR linked to the lac2 reporter gene after integration, inducing β-galactosidase expression when x-gal is added to the cell medium. Any cell with integrated HIV-1 will turn blue. Thus, this assay provides a convenient way to determine the effect of HIV inhibitors at any early step up through the expression of tat, including the inhibition of integration.
The magic cells are plated in twelve-well plates one day prior to infection. The standard assay involves infection with approximately 200 infectious units of HIV-1. This gives an approximately 20 to 1 ratio of signal to background and sufficient numbers of infectious events to quantitate dim effects. The cells are pretreated with drug for 4 hours prior to virus infection, and virus adsorption takes place for 1 hour. The cells are washed with plain medium, and then medium with inhibitor is placed back on the cells. Two days later the cells are fixed after integration with x-gal, the indicator reagent for β-galactosidase production. The number of β-galactosidase expressing cells are quantitated by light microscopy.
The results of comparisons of infectious units with or without various concentrations of the bis-benzimididazoles drugs in the magic cell assay are expressed as IC50 values and are compiled in Table 2 above. Note that the best anti-HIV compounds (B-D) were also the best integrase inhibitors, except for compound A, which could not be accurately measured due to its substrate aggregating properties.

Magic cells [2] = test: Toxicity assay (XTT) on the cell lines used to measure virus infectivity; type: cell-based; settings: human, 2 days
Experimental: (§1) Three different toxicity tests were performed on the cell lines used to measure virus infectivity.
(§2) The initial test for toxicity utilized the XTT Assay as described by Weislow et al, J. Natl. Cancer Inst. 81, 577-586 (1989). This is the standard assay used originally to measure cell toxicity by potential reverse transcriptase inhibitors. Briefly, cells were grown to cells/ml and drug dilutions were added to the medium. After two days incubation, XTT reagent is added and incubation is continued for 4 h at 37° C. Following incubation, the plates are read at 450 minus 650 nm (the 650 value is the backround value which is automatically subtracted) with controls of media+XTT reagent without cells, and cells+media without reagent. Also a control of cells+media+XTT reagent was run for each plate. Medium without phenol red was employed to minimize background color as the XTT reagent goes from colorless (unreduced) to orange (reduced). The XTT reagent was freshly prepared on the day of assay as follows: 1 mg/ml of XTT in […] phenazine methosulfate. The phenazine methosulfate solution was prepared ahead of time and stored at 4° C. in a dark bottle. The XTT reagent is added to the microtiter wells at 24 ul per 100 ul of medium. The O.D. was measured on a Vmax plate reader from Molecular Devices Co. with data reduction. Results are expressed as percent of untreated controls. The least toxic compounds were Compounds A, B, and F with toxicities values at 500 μM or greater.
(§3) The third test for cell toxicity assessed growth rate in the presence of the test compound versus a control culture. Magic cells were grown over a period of 15 days with or without various dilutions of test compound. Aliquots were removed every other day and the cells were counted in a hemocytometer. The results are set forth in FIG. 2 herein (see also Table 2 below).

[3] = as above; type: cell-based; settings: human
Experimental: as §1, §2, §3

Magic cells [4] = test: Plating efficiency test; type: cell-based; settings: at the concentrations at which anti-viral effects were observed
Experimental: Next, a plating efficiency test measured the ability of the cell to grow after incubation with drug for a number of days. Magic cells were grown from an initial cell concentration of 0.8×104 with or without various concentrations of test compound for 6 days. Plating ability of the cells was assessed by plating dilutions of each culture on plastic. Colony forming units were determined after growth for two to four days by counting colonies after staining the plates. Each sample was plated in duplicate and the colony number averaged.
Another test of cellular effects by the compounds was a measure of plating efficiency of the cells after incubation with various concentrations of test agents. This will assess the actual killing of the cells by the drugs. The IC50 values are expected to be much higher in this test.

Magic cells [5] = test: Growth rate in the presence of test compound; type: cell-based
Experimental: as §3
The most sensitive test employed measurements of growth rates for the cells in the presence of the test compound. Although the anti-viral assay used was one that assessed early times of the viral life cycle, this test was carried out for 15 days, with counting of cell numbers in cultures performed every other day during this time.

HIV-1 [6] = test: Standard reinfection assay of antiviral activity; type: cell-based; settings: Human immunodeficiency virus 1
Experimental: In addition, the assessment of antiviral activity as measured by the standard reinfection assay was performed for compound B. The IC50 for compound B in this assay was 10-30 μM. This confirms that the Magic cell assay is suitable for screening potential integrase inhibitors with good antiviral activity.

HIV-1 integrase = biological target: T1, HIV-1 integrase (Human immunodeficiency virus type 1 group M subtype B, UniProt P04585); test: Integrase inhibition assay (cleavage and strand transfer of 32P-labelled HIV-1 U5/U3 oligonucleotide substrate); type: biochemical
T1 construct: using the integrase coding domain from the HXB2 clone of HIV-1 DNA; made in house; host or cells: E. coli
Experimental: Integrase was overproduced in E. coli from an inducible plasmid containing the integrase sequence under control of a lacI-regulated T7 polymerase using the integrase coding domain from the HXB2 clone of HIV-1 DNA (L. Ratner et al, AIDS Res. Hum. Retroviruses 3, 57-69 (1987)), pT7fll-IN. A one liter culture at an O.D. of 0.6 was induced by the addition of IPTG to 0.5 mM. After three hours, the cells were harvested by centrifugation and the pellets were stored at −70° C.
The integrase protein was purified by a modification of the method of Sherman and Fyfe (P. Sherman et al, Proc. Natl. Acad. Sci. USA 87, 5119-23 (1990)). The cells were lysed by thawing in a buffer (50 mM Tris-HCl pH 7.5, 5 mM dithiothreitol, 1 mM EDTA, 1 mg/ml lysozyme) on ice at 6 ml/g bacterial pellet for 30 minutes, and then incubating at 37° C. for 5 minutes. The lysate was centrifuged at 12,000×g for one hour. The pellets were resuspended in 50 mM Tris-HCl, pH 7.5, 1 mM dithiothreitol, 1 mM EDTA, 1 M NaCl (4 ml/g original bacteria). The homogenate was stirred for 30 minutes at 4° C. and recentrifuged for 30 minutes at 12,000×g.
The supernatant was made 0.8 M in ammonium sulfate by the slow addition of powder with stirring over a 30 minute period. The extract was then centrifuged to remove any precipitate and applied to a phenyl sepharose column. After a 50 ml wash with high salt buffer (50 mM Tris-HCl, 1 mM EDTA, 5 mM DTT, 2 M NaCl), the protein was eluted with a gradient from high salt to O salt buffer containing 10% (weight/vol) glycerol and further purified through a G75 Sephadex column to remove background nuclease. A one liter culture generates enough integrase activity to perform over a thousand drug inhibition assays.
Cleavage of specific sites is assessed as described in Sherman et al., supra, except that the assay buffer was the same as that reported by Chow et al, Science 255, 723-6 (1992). Single 20 mer oligonucleotides corresponding to either the U5 or U3 ends of HIV-1 are end-labeled with ^32P, annealed with its complement, purified, and used under the same conditions as described above for the endonuclease assay. Reaction products are denatured with formamide, electrophoresed through 20% denaturing polyacrylamide gels and visualized by autoradiography. Both cleavage and ligation activity can be assessed from one gel. To assess the ligation activity alone, “precleaved” substrate that had the −2 cleavage artificially produced by using a radiolabelled 18 mer oligonucleotide was also used for some experiments.
Integrase overproduced in E. coli was purified as described above in accordance with Sherman et al, supra, and used in drug inhibition assays. […] Dilutions of the inhibitor compounds described in Example 1 above were mixed with substrate before the addition of enzyme. The Assay was the same as described in Example 2 and used the substrate described in Example 2. Each assay was performed in duplicate. Radioactivity in bands on dried gels were quantitated with a Phosphor imager to assess drug effects on both the cleavage, nuclease, and ligation products. The IC50 values for integrase inhibition were calculated for both the cleaving and joining parts of the integrase reaction after determining the % inhibition of the control reaction for a series of drug concentrations. Compounds A, B, C, and D had similar effects on integrase activity. Compound A, however, caused aggregation of the substrate starting at relatively low concentrations (10 μM), complicating its assessment.

[7] = Integrase Cleavage IC50, % cleavage of the substrate compared to control
[8] = Integrase Strand Transfer IC50, joining part of the integrase reaction

| SMILES | IC50 (HIV-1 [1]) | XTT assay toxicity value (Magic cells [2]) | IC50 at 2 days [3] | Effect on Magic cell plating efficiency (Magic cells [4]) | Effect on growth rate of the cell line (Magic cells [5]; concentration that inhibited 50% of the viral integration events, up to two weeks) | Effect on growth rate of the cells (Magic cells [5]; higher concentrations, 15 days test) | IC50 (HIV-1 [6]) | IC50 (HIV-1 integrase; [7]) | IC50 (HIV-1 integrase; [8]) | Concentration at which aggregation of the substrate starts (HIV-1 integrase; integrase assay substrate) | IC50 at 2 days ([3]; Magic cells, read-out: Magic Cells Toxicity IC50) |
| --- | --- | --- | --- | --- | --- | --- | --- | --- | --- | --- | --- |
| CC(C)NC(=N)c1ccc2nc(C=Cc3nc4ccc(C(=N)NC(C)C)cc4[nH]3)[nH]c2c1 [Compound B, 1,2-bis[5-isopropylamidino-2-benzimidazolyl]ethene] | 10 to 30 µM | ≥ 500 µM | 473 µM | no effect | no effect on the growth rate | did effect the growth rate | 10 to 30 µM | 61 µM | 19 µM |  |  |
| N=C(N)c1ccc2nc(C=Cc3nc4ccc(C(=N)N)cc4[nH]3)[nH]c2c1 [Compound A, 1,2-bis[5-amidino-2-benzimidazolyl]ethene] | 48 µM | ≥ 500 µM | > 500 µM |  |  |  |  | 11 µM | 11.5 µM | 10 µM |  |
| N=C(N)c1ccc2[nH]c(Cc3nc4cc(C5=NCCN5)ccc4[nH]3)nc2c1 [E, (5-Amidino-2-benzimidazolyl)-(5′-(2-imidazolinyl)-2′-benzimidazolyl)methane] | 16 µM |  | 65 µM |  |  |  |  | > 100 µM | 122 µM |  |  |
| N=C(N)c1ccc2nc(Cc3nc4ccc(C(=N)N)cc4[nH]3)[nH]c2c1 [D, bis[5-amidino-2-benzimidazolyl]methane] | 7 µM |  |  |  |  |  |  |  |  |  | 175 µM |
